Earlier results as cited in US12697342B2, “Non-surgical prevention of boar taint and aggressive behavior” (priority 2022, dated 2026).

Test system: Sertoli cells
Conditions: young male pigs

SMILES | duration of Sertoli cell proliferation and testis size
C[C@]12CC[C@@H]3c4ccc(O)cc4C[C@@H](CCCCCCCCC[S+]([O-])CCCC(F)(F)C(F)(F)F)[C@H]3[C@@H]1CC[C@@H]2O (some centres unmarked) [ICI 182,780] | highly significant increase
N#Cc1ccc(C(c2ccc(C#N)cc2)n2cncn2)cc1 [Letrozole] | highly significant increase
